Reference: the NIST ThermoML archive (doi:10.1021/acs.jced.6b00829)
Numbers after ± are expanded uncertainties.

Experiments:
[1] = 298.15 K; 101.33 kPa; Liquid; Vibrating tube method
[2] = refractive index (Na D-line) (dimensionless); settings: 298.15 K; 101.33 kPa; Liquid; Standard Abbe refractometry

Row | mass density [1] [kg/m3] | refractive index [2] | Structure (SMILES)
1 | 1367.4 ± 2.1 | 1.4095 ± 0.0008 | CCCCn1cc[n+](C)c1.F[P-](F)(F)(F)(F)F [1-butyl-3-methylimidazolium hexafluorophosphate]
2 | 786.47 ± 2 | 1.3594 ± 0.0008 | CCO [ethanol]
3 |  | 1.3325 ± 0.0008 | O [water]
